From ChEMBL document CHEMBL1201862, “PubChem BioAssay data set” (2004)
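All cell lines were grown in 96-well plates and treated with compound for 48 hours. GI50 is the concentration that inhibits growth by half.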 The source made the active and inactive calls. Rule as the data show it: active = GI50 up to about 1.1 µM and inactive = higher.

How the values were obtained:
Assay in all cases: DTP human tumour cell line panel, 48 h
A498 = test system: A498
HT-29 = test system: HT-29
IGROV-1 = test system: IGROV-1
KM12 = test system: KM12
MOLT-4 = test system: MOLT-4
NCI-H23 = test system: NCI-H23
OVCAR-3 = test system: OVCAR-3
OVCAR-8 = test system: OVCAR-8
SF-268 = test system: SF-268
SK-MEL-28 = test system: SK-MEL-28
SK-MEL-2 = test system: SK-MEL-2
SR = test system: SR
TK-10 = test system: TK-10
U-251 = test system: U-251
UO-31 = test system: UO-31
HCC 2998 = test system: HCC 2998
SF-295 = test system: SF-295

SMILES | GI50 (A498) | GI50 (HT-29) | GI50 (IGROV-1) | GI50 (KM12) | GI50 (MOLT-4) | GI50 (NCI-H23) | GI50 (OVCAR-3) | GI50 (OVCAR-8) | GI50 (SF-268) | GI50 (SK-MEL-28) | GI50 (SK-MEL-2) | GI50 (SR) | GI50 (TK-10) | GI50 (U-251) | GI50 (UO-31) | GI50 (HCC 2998) | GI50 (SF-295)
COc1ccc(/C(=N\NC(=O)C(=O)NN)C(c2ccc(OC)cc2)C2(O)C(=O)Nc3ccccc32)cc1 (stereo not drawn) | 48.8 µM (inactive) | 14.5 µM (inactive) | > 100 µM (inactive) | > 100 µM (inactive) | 6.44 µM (inactive) | 89.5 µM (inactive) | > 100 µM (inactive) | > 100 µM (inactive) | 55.2 µM (inactive) | > 100 µM (inactive) | 69.7 µM (inactive) | 46 µM (inactive) | 69 µM (inactive) | > 100 µM (inactive) | 27.6 µM (inactive) | – | –
O=C1C2C3CC4C5C3C1C5C1(SCCS1)C42 (stereo not drawn) | > 100 µM (inactive) | – | > 100 µM (inactive) | > 100 µM (inactive) | > 100 µM (inactive) | – | – | > 100 µM (inactive) | > 100 µM (inactive) | > 100 µM (inactive) | > 100 µM (inactive) | > 100 µM (inactive) | > 100 µM (inactive) | > 100 µM (inactive) | > 100 µM (inactive) | > 100 µM (inactive) | –
Cc1ccccc1C(=O)Oc1ccc(O)cc1 | > 100 µM (inactive) | > 100 µM (inactive) | > 100 µM (inactive) | > 100 µM (inactive) | > 100 µM (inactive) | > 100 µM (inactive) | > 100 µM (inactive) | > 100 µM (inactive) | > 100 µM (inactive) | – | > 100 µM (inactive) | – | > 100 µM (inactive) | > 100 µM (inactive) | > 100 µM (inactive) | > 100 µM (inactive) | > 100 µM (inactive)
N#CCCN(c1ccc(C=O)cc1)S(=O)(=O)c1ccccc1 | > 100 µM (inactive) | > 100 µM (inactive) | > 100 µM (inactive) | > 100 µM (inactive) | > 100 µM (inactive) | – | > 100 µM (inactive) | > 100 µM (inactive) | > 100 µM (inactive) | > 100 µM (inactive) | > 100 µM (inactive) | > 100 µM (inactive) | – | > 100 µM (inactive) | > 100 µM (inactive) | > 100 µM (inactive) | > 100 µM (inactive)
CCN(CC)CCn1c2c3ccccc3ccc2c2oc(=O)c3ccccc3c21 | – | > 100 µM (inactive) | 68.1 µM (inactive) | > 100 µM (inactive) | – | > 100 µM (inactive) | > 100 µM (inactive) | > 100 µM (inactive) | 82.2 µM (inactive) | > 100 µM (inactive) | > 100 µM (inactive) | 34.7 µM (inactive) | > 100 µM (inactive) | 57 µM (inactive) | > 100 µM (inactive) | – | 56.2 µM (inactive)
Cc1cc(O)nc(CNC(=O)Cc2ccccc2)n1 | > 100 µM (inactive) | > 100 µM (inactive) | > 100 µM (inactive) | > 100 µM (inactive) | > 100 µM (inactive) | > 100 µM (inactive) | > 100 µM (inactive) | > 100 µM (inactive) | > 100 µM (inactive) | > 100 µM (inactive) | > 100 µM (inactive) | – | > 100 µM (inactive) | – | > 100 µM (inactive) | > 100 µM (inactive) | > 100 µM (inactive)
CC1=COC(=O)c2ccccc2N1 | – | > 100 µM (inactive) | > 100 µM (inactive) | > 100 µM (inactive) | – | > 100 µM (inactive) | > 100 µM (inactive) | > 100 µM (inactive) | > 100 µM (inactive) | > 100 µM (inactive) | > 100 µM (inactive) | > 100 µM (inactive) | > 100 µM (inactive) | > 100 µM (inactive) | > 100 µM (inactive) | > 100 µM (inactive) | > 100 µM (inactive)
COc1cc2ccc3c4cc(OC)c(OC)cc4c[n+](C)c3c2cc1O | > 24.4 µM (inactive) | > 100 µM (inactive) | > 100 µM (inactive) | > 100 µM (inactive) | > 100 µM (inactive) | 37.1 µM (inactive) | 67.5 µM (inactive) | 32.3 µM (inactive) | 0.658 µM (active) | > 100 µM (inactive) | > 100 µM (inactive) | – | > 100 µM (inactive) | 6.37 µM (inactive) | > 100 µM (inactive) | > 100 µM (inactive) | –
CCOC(=O)C(C(=O)c1ccccc1)=C1NCCN1 | – | > 100 µM (inactive) | > 100 µM (inactive) | > 100 µM (inactive) | > 100 µM (inactive) | > 100 µM (inactive) | > 100 µM (inactive) | > 100 µM (inactive) | > 100 µM (inactive) | > 100 µM (inactive) | > 100 µM (inactive) | > 100 µM (inactive) | – | > 100 µM (inactive) | > 100 µM (inactive) | > 100 µM (inactive) | > 100 µM (inactive)
COS(=O)(=O)OCCC(NC(=O)OCc1ccccc1)C(=O)OCc1ccccc1 (stereo not drawn) | > 100 µM (inactive) | 59.2 µM (inactive) | > 100 µM (inactive) | > 100 µM (inactive) | > 100 µM (inactive) | > 100 µM (inactive) | > 100 µM (inactive) | > 100 µM (inactive) | > 100 µM (inactive) | > 100 µM (inactive) | > 100 µM (inactive) | – | > 100 µM (inactive) | > 100 µM (inactive) | > 100 µM (inactive) | 66.4 µM (inactive) | > 100 µM (inactive)
O=C(N/N=C/c1cccc(O)c1O)N/N=C/c1cccc(O)c1O | 32.1 µM (inactive) | 44.8 µM (inactive) | 48.1 µM (inactive) | 26.5 µM (inactive) | 5.38 µM (inactive) | 25.2 µM (inactive) | 2.51 µM (inactive) | 16.6 µM (inactive) | 5.93 µM (inactive) | 20.1 µM (inactive) | 24 µM (inactive) | – | 29.4 µM (inactive) | 12.3 µM (inactive) | 6.52 µM (inactive) | – | 17.9 µM (inactive)
O=c1cc(-c2ccccc2)c2cc3c(=O)ccoc3cc2o1 | 15.7 µM (inactive) | > 100 µM (inactive) | – | – | > 100 µM (inactive) | > 100 µM (inactive) | > 100 µM (inactive) | > 100 µM (inactive) | > 100 µM (inactive) | > 100 µM (inactive) | > 100 µM (inactive) | > 100 µM (inactive) | 44.4 µM (inactive) | > 100 µM (inactive) | > 100 µM (inactive) | > 100 µM (inactive) | 42.8 µM (inactive)
CCCCN(CC)C(=O)C(=O)C1C(=O)Nc2ccccc2[S+]1[O-] (stereo not drawn) | > 100 µM (inactive) | > 100 µM (inactive) | > 100 µM (inactive) | > 100 µM (inactive) | > 100 µM (inactive) | > 100 µM (inactive) | > 100 µM (inactive) | > 100 µM (inactive) | > 100 µM (inactive) | > 100 µM (inactive) | > 100 µM (inactive) | – | > 100 µM (inactive) | > 100 µM (inactive) | > 100 µM (inactive) | > 100 µM (inactive) | –
CN(C)CC/C(=N\Nc1ccccc1)c1ccccc1 | – | 2.13 µM (inactive) | 29.4 µM (inactive) | 1.57 µM (inactive) | 2.83 µM (inactive) | 23 µM (inactive) | 13.9 µM (inactive) | 4.35 µM (inactive) | 8.13 µM (inactive) | > 10 µM (inactive) | 9.16 µM (inactive) | 47.8 µM (inactive) | 14.3 µM (inactive) | 27.4 µM (inactive) | 6.85 µM (inactive) | 12.2 µM (inactive) | 2.56 µM (inactive)
CCN1N=CSC12C(=O)N(c1ccccc1)C(=O)N2c1ccccc1 (stereo not drawn) | > 100 µM (inactive) | > 100 µM (inactive) | > 100 µM (inactive) | > 100 µM (inactive) | > 100 µM (inactive) | > 100 µM (inactive) | > 100 µM (inactive) | > 100 µM (inactive) | > 100 µM (inactive) | > 100 µM (inactive) | – | > 100 µM (inactive) | > 100 µM (inactive) | > 100 µM (inactive) | > 100 µM (inactive) | > 100 µM (inactive) | > 100 µM (inactive)
CC(C)(C)C1CCC(=O)C(C(O)CC2CC(=O)N(c3ccccc3)C(=O)C2)C1 (stereo not drawn) | > 100 µM (inactive) | > 100 µM (inactive) | > 100 µM (inactive) | > 100 µM (inactive) | 54.5 µM (inactive) | > 100 µM (inactive) | > 100 µM (inactive) | > 100 µM (inactive) | 81.5 µM (inactive) | > 100 µM (inactive) | – | 81.3 µM (inactive) | > 100 µM (inactive) | 80.2 µM (inactive) | > 100 µM (inactive) | > 100 µM (inactive) | > 100 µM (inactive)
COc1ccc(S(=O)(=O)N(CC(=O)O)c2ccccc2)cc1 | > 100 µM (inactive) | > 100 µM (inactive) | > 100 µM (inactive) | > 100 µM (inactive) | > 100 µM (inactive) | > 100 µM (inactive) | > 100 µM (inactive) | > 100 µM (inactive) | > 100 µM (inactive) | > 100 µM (inactive) | > 100 µM (inactive) | – | > 100 µM (inactive) | > 100 µM (inactive) | > 100 µM (inactive) | > 100 µM (inactive) | > 100 µM (inactive)
COc1ccc(C2Cc3cc(OC)c(OC)c(OC)c3C2=O)cc1 (stereo not drawn) | > 100 µM (inactive) | > 100 µM (inactive) | > 100 µM (inactive) | > 100 µM (inactive) | > 100 µM (inactive) | 87.9 µM (inactive) | > 100 µM (inactive) | > 100 µM (inactive) | > 100 µM (inactive) | > 100 µM (inactive) | > 100 µM (inactive) | – | > 100 µM (inactive) | > 100 µM (inactive) | 41.8 µM (inactive) | > 100 µM (inactive) | > 100 µM (inactive)
